Experimental data: patent US20240287124A1, “PRODRUGS OF 4'-SUBSTITUTED NUCLEOSIDE REVERSE TRANSCRIPTASE INHIBITORS” (Merck Sharp & Dohme LLC, priority 2023, published 2024)
Values after ≈ are worked out from the molar mass of the structure shown. Read-outs that look alike come from different tables or passages of the source.

Columns and labels:
[1] = test system: HIV-1 wild-type (R8) virus; assay: Viral KINetics in Green cells (VIKING) assay, HIV-1 replication in MT4-GFP reporter cells; assay type: cell-based; conditions: MT4-GFP cells, HIV-1 wild-type (R8), read-out: Viking (10% NHS), IC50
In short: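 Compounds in 3-fold, 10-point series (typical 4 μM-0.2 nM) in 10% normal human serum received MT4 GFP-reporter T cells pre-infected overnight with wild-type R8 virus (MOI ~0.01). Ratio of GFP-positive cells at 72 vs 48 h defined replication; IC50 from nonlinear 4-parameter dose-response fitting.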

[2] = Aqueous solubility in PBS, pH 7.4; assay type: physicochemical; conditions: pH 7.4 phosphate buffered saline, 24 hours, amorphous or crystalline material; for solubility at 24 h: pH 7.4, aqueous buffer, thermodynamic from solid, read-out: Aqu. Solubility
Description: Aqueous solubility of the compounds was determined by suspending excess solid (typically 0.3-0.5 mg) in PBS, pH 7.4, at a concentration of 0.5 mg/mL. The suspension was vortexed for 10-30 seconds to wet the material and stirred at 600 rpm for 24 hours. For analysis by UPLC, 150 μL aliquot sample was transferred into a […] PVDF spin filter and centrifuged at 14,000 rpm for 5 minutes. 100 μL of the filtrate was diluted with 100 μL 1:1 Acetonitrile (ACN):H2O. The resultant samples were analyzed using UPLC and quantified against a standard curve of the compound of interest dissolved in 1:1 ACN:H2O. The retains of the solids were checked by XRPD and PLM to determine if the phase of the material was crystalline or amorphous.

[3] = Human immunodeficiency virus 1, 10% normal human serum

SMILES	IC50 [1, 3]	solubility at 24 h ([2]; phosphate buffered saline)	solubility at 24 h [2]	IC50 ([1]; 10% normal human serum)	Aqu. Solubility [2]
C#C[C@]1(CO)O[C@@H](n2ccc3c(N)nc(Cl)nc32)C[C@@H]1OC(=O)Cc1ccc(F)cc1 [Example 31, (2R,3S,5R)-5-(4-amino-2-chloro-7H-pyrrolo[2,3-d]pyrimidin-7-yl)-2-ethynyl-2-(hydroxymethyl)tetrahydrofuran-3-yl 2-(4-fluorophenyl)acetate]	4.6 nM	11 µg/mL (≈ 24.7 µM)			
C#C[C@]1(COP(=O)(N[C@@H](C)C(=O)OC(C)C)Oc2ccc3ccccc3c2)O[C@@H](n2ccc3c(N)nc(Cl)nc32)C[C@@H]1O (some centres unmarked) [Example 75]	47 nM		30 µg/mL (≈ 47.8 µM)		
C#C[C@]1(COC(=O)Oc2ccccc2)O[C@@H](n2ccc3c(N)nc(Cl)nc32)C[C@@H]1O [Example 17, ((2R,3S,5R)-5-(4-amino-2-chloro-7H-pyrrolo[2,3-d]pyrimidin-7-yl)-2-ethynyl-3-hydroxytetrahydrofuran-2-yl)methyl phenyl carbonate]	1.4 nM	164 µg/mL (≈ 382 µM)			
C#C[C@]1(COC(=O)OCc2ccccc2)O[C@@H](n2ccc3c(N)nc(Cl)nc32)C[C@@H]1O [Example 122]				4 nM	107 µg/mL
C#C[C@]1(CO)O[C@@H](n2ccc3c(N)nc(Cl)nc32)C[C@@H]1OC(=O)OCCCCCCCC [Example 79]	4.3 nM	< 1 µg/mL			
C#C[C@]1(COC(=O)OCc2ccccc2)O[C@@H](n2ccc3c(N)nc(Cl)nc32)C[C@@H]1OC(=O)OCCCC [Example 212]	4.8 nM	< 1 µg/mL			
C#C[C@]1(COC(=O)OCCCCCCCCCCCC)O[C@@H](n2ccc3c(N)nc(Cl)nc32)C[C@@H]1O [Example 117]	4 nM	< 1 µg/mL			
C#C[C@]1(CO)O[C@@H](n2ccc3c(N)nc(Cl)nc32)C[C@@H]1OC(=O)CCCCCCCCCCC [Example 25, (2R,3S,5R)-5-(4-amino-2-chloro-7H-pyrrolo[2,3-d]pyrimidin-7-yl)-2-ethynyl-2-(hydroxymethyl)tetrahydrofuran-3-yl dodecanoate]	3.5 nM	2 µg/mL (≈ 4.07 µM)			
C#C[C@]1(COC(=O)OCCc2ccccc2)O[C@@H](n2ccc3c(N)nc(Cl)nc32)C[C@@H]1O [Example 124]	3.6 nM	71 µg/mL (≈ 155 µM)			
C#C[C@]1(COC(=O)Cc2ccc(Br)cc2)O[C@@H](n2ccc3c(N)nc(Cl)nc32)C[C@@H]1O [Example 73, ((2R,3S,5R)-5-(4-amino-2-chloro-7H-pyrrolo[2,3-d]pyrimidin-7-yl)-2-ethynyl-3-hydroxytetrahydrofuran-2-yl)methyl 2-(4-bromophenyl)acetate]	3.2 nM	24 µg/mL (≈ 47.5 µM)			
C#C[C@]1(COC(=O)CCCc2ccccc2)O[C@@H](n2ccc3c(N)nc(Cl)nc32)C[C@@H]1O [Example 129]	3.1 nM	37 µg/mL (≈ 81.3 µM)			
C#C[C@]1(COC(=O)OCCCCCCCC)O[C@@H](n2ccc3c(N)nc(Cl)nc32)C[C@@H]1OC(=O)CC [Example 113]	26 nM	< 1 µg/mL			
C#C[C@]1(COC(=O)CCCCCC)O[C@@H](n2ccc3c(N)nc(Cl)nc32)C[C@@H]1O [Example 119]	3.5 nM	57 µg/mL (≈ 135 µM)			
C#C[C@]1(COC(=O)CCCCCCC)O[C@@H](n2ccc3c(N)nc(Cl)nc32)C[C@@H]1O [Example 57, ((2R,3S,5R)-5-(4-amino-2-chloro-7H-pyrrolo[2,3-d]pyrimidin-7-yl)-2-ethynyl-3-hydroxytetrahydrofuran-2-yl)methyl octanoate]	2.6 nM	5 µg/mL (≈ 11.5 µM)			
C#C[C@]1(COC(=O)OC(CC)CC)O[C@@H](n2ccc3c(N)nc(Cl)nc32)C[C@@H]1O [Example 86]	13 nM	145 µg/mL (≈ 343 µM)			
C#C[C@]1(CO)O[C@@H](n2ccc3c(N)nc(Cl)nc32)C[C@@H]1OC(=O)OCC(CC)CC [Example 78]	6.7 nM	2 µg/mL (≈ 4.58 µM)			
